These results are taken from patent publication US20080262266A1, “Method for the Production of Xylyendiamine” (BASF SE, priority 2005, published 2008).

Read-outs that look alike come from different tables or passages of the source.

A short description of data set [1]: solubility of isophthalonitrile (IPN) in organic solvents. The format is physicochemical. The note with it: 60° C.
The conditions of data set [2]: 70° C.; cited from earlier work.

With `N#Cc1cccc(C#N)c1` [IPN, 1,3-dicyanobenzene], the results for the “solubility of IPN in MXDA” value in data set [1] (MXDA) and in data set [2] were 15 % by weight and “about 20 % by weight”, respectively. For the same compound, in data set [1] (THF), the “solubility of IPN in THF” value is on record as about 19 % by weight. For the same compound, the “solubility of IPN in methanol” value in data set [1] (methanol) amounted to 18 % by weight.
